For series [1], the system named is EOL-1. Kind of series: Cell Titer Glo cell viability assay, 48 h. Type of series: cell-based, human. As to conditions: 48 h, mean of 2 independent experiments, 0 = less than 10 nM, cell line not given, read-out: IC50 of inhibitors on cell lines, m (mean). The procedure, abridged: (§1)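 5 × 10^3 cells/well, RPMI/10% FCS; 2-fold serial dilutions, duplicate; 48 h; Cell Titer Glo luminescence.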
A general note: Cellular ATP, detected with luciferase, serves as a proxy for viable cell number.

For series [2], the system named is HEL.92.1.7. Kind of series: Cell Titer Glo cell viability assay, 48 h. In kind it is cell-based, human. As to conditions: 48 h, mean of 2 independent experiments, 0 = less than 10 nM, cell line not given, read-out: IC50 of inhibitors on cell lines, m (mean). An outline of the steps:
as §1

Series [3] has as its system HL-60. Nature of the series: Cell Titer Glo cell viability assay, 48 h. Type of series: cell-based, human. As to conditions: 48 h, mean of 2 independent experiments, 0 = less than 10 nM, cell line not given, read-out: IC50 of inhibitors on cell lines, m (mean). An outline of the steps: as §1
In series [4] the test system is JURKAT. Nature of the series: Cell Titer Glo cell viability assay, 48 h. In kind it is cell-based, human. As to conditions: 48 h, mean of 2 independent experiments, 0 = less than 10 nM, cell line not given, read-out: IC50 of inhibitors on cell lines, m (mean). An outline of the steps: as §1
For series [5], the system named is K562. Nature of the series: Cell Titer Glo cell viability assay, 48 h. In kind it is cell-based, human. The note with it: 48 h, mean of 2 independent experiments, 0 = less than 10 nM, cell line not given, read-out: IC50 of inhibitors on cell lines, m (mean). An outline of the steps:
as §1

Series [6] relates to KU-812. Nature of the series: Cell Titer Glo cell viability assay, 48 h. In kind it is cell-based, human. As to conditions: 48 h, mean of 2 independent experiments, 0 = less than 10 nM, cell line not given, read-out: IC50 of inhibitors on cell lines, m (mean). An outline of the steps:
as §1

For series [7], the system named is MEG-01. Nature of the series: Cell Titer Glo cell viability assay, 48 h. As to conditions: 48 h, mean of 2 independent experiments, 0 = less than 10 nM, cell line not given, read-out: IC50 of inhibitors on cell lines, m (mean). In kind it is cell-based, human. The procedure, abridged:
as §1

The subject of series [8] is MOLT4. Nature of the series: Cell Titer Glo cell viability assay, 48 h. Type of series: cell-based, human. As to conditions: 48 h, mean of 2 independent experiments, 0 = less than 10 nM, cell line not given, read-out: IC50 of inhibitors on cell lines, m (mean). An outline of the steps: as §1
Series [9] deals with MV4;11. Kind of series: Cell Titer Glo cell viability assay, 48 h. In kind it is cell-based, human. As to conditions: 48 h, mean of 2 independent experiments, 0 = less than 10 nM, cell line not given, read-out: IC50 of inhibitors on cell lines, m (mean). An outline of the steps: as §1
Series [10] concerns OCI-AML3. Nature of the series: Cell Titer Glo cell viability assay, 48 h. The note with it: 48 h, mean of 2 independent experiments, 0 = less than 10 nM, cell line not given, read-out: IC50 of inhibitors on cell lines, m (mean). Type of series: cell-based, human. An outline of the steps:
as §1

Series [11] concerns THP-1. Kind of series: Cell Titer Glo cell viability assay, 48 h. In kind it is cell-based, human. As to conditions: 48 h, mean of 2 independent experiments, 0 = less than 10 nM, cell line not given, read-out: IC50 of inhibitors on cell lines, m (mean). The procedure, abridged:
as §1

Series [12] has as its system U937. Kind of series: Cell Titer Glo cell viability assay, 48 h. Type of series: cell-based, human. The note with it: 48 h, mean of 2 independent experiments, 0 = less than 10 nM, cell line not given, read-out: IC50 of inhibitors on cell lines, m (mean). The procedure, abridged: as §1
Series [13] relates to panel of human leukemia cell lines. Nature of the series: Cell Titer Glo cell viability assay, 48 h, statements across the whole panel. How it is done: The activity of the kinase inhibitor collection against a panel of human leukemia cell lines was determined in cell viability assays run over 48 h using the Cell Titer Glo reagent.
Figure 1 Effects of kinase inhibition on the proliferation of leukemia cells A. Human leukemia cell lines were treated with duplicate serial dilutions of kinase inhibitors and the effect on cell viability was determined by Cell Titer Glo assay after 48 hours. Data shown represents the mean IC50 of each condition from 2 independent experiments. HL-60 cells were treated with serial dilutions of mTor/PI3K B. and MEK C. inhibitors and the effect on cell viability was determined after 48 hours. Data shown is the mean ± SEM of 3 independent experiments.
Leukemia and lymphoma cell lines were grown in RPMI containing 10% FCS. […] Cell lines are routinely tested for mycoplasma and genotyped by short tandem repeating (STR) profiling to confirm identity.
Compounds were obtained from SynMedChem and dissolved at […] in DMSO. Serial 2-fold dilutions of each compound were prepared in DMSO using a liquid handling robot (Janus, Perkin Elmer). Each dilution (100nL) was transferred to duplicate tissue culture plates containing 50 μL of media containing 5 × 10^3 cells using a 384 well pin tool. Cells were incubated for 48 h and cell viability was determined using Cell Titer Glow reagents as described by the manufacturer (Promega). Data was acquired using a luminescent plate reader (Envision, Perkin Elmer) and analysed using Activity Base (IDBS, Guilford, UK) and visualised using Spotfire (TIBCO, Palo Alto, CA) as described previously. Each cell line was assayed in independent experiments on at least two occasions. […] Serial 2-fold dilutions of each compound were prepared in media containing 0.2% DMSO and 50 μl of each dilution was added to 10^4 cells in 50 μl of media. Cells were incubated for 48 h and cell viability was determined using Cell Titer Glow assay as described above.

In series [14] the test system is human peripheral blood neutrophils. Kind of series: Human neutrophil viability by propidium iodide exclusion, flow cytometry. The note with it: G-CSF or GM-CSF primed 1 h; treated 18 h; dose range. As for the experimental part:
Figure 3 Assessment of human neutrophil viability in response to kinase inhibitor treatment Human peripheral blood neutrophils from three healthy donors were primed with G-CSF or GM-CSF for 1 hour before addition of selected kinase inhibitors (as shown) or DMSO (control) at concentrations as indicated. Neutrophil viability was assessed after 18 hours of treatment, by propidium iodide exclusion measured by flow cytometry. Mean ± SEM shown.
Donors were 18 years of age or older and had not taken anti-inflammatory medications during the 2 weeks before donating. […] Human neutrophils were then isolated on a three-layer Percoll gradient as described for mouse bone marrow neutrophils as described. […] Neutrophils were resuspended in DMEM/10%FBS, and primed with 10 ng/mL recombinant human G-CSF (Amgen) or 10 ng/mL recombinant human GM-CSF (Leukine, Sargramostim) for 1 h. Compounds or DMSO carrier were added for […]. Viability was assessed by staining neutrophils with propidium iodide and analyzing on a BD Fortessa.
(In general: A flow cytometer gives signals particle by particle.)

In series [15] the test system is primary murine myeloid HPCs (lin-c-Kit+Sca-1- cells). Nature of the series: Live cell imaging viability of hematopoietic myeloid progenitor cells. The text has this: (C & D) Dose-dependent effects of common chemotherapeutics on GM-CSF-primed primary murine myeloid HPCs C. or GM-CSF-primed primary murine bone-marrow neutrophils D. as assessed by live cell imaging analysis (concentrations as marked). E. Comparison of G-CSF (red/orange) or GM-CSF (blue) priming of myeloid HPCs before treatment with chemotherapeutics as assessed by live cell imaging (concentrations as marked). […] Mean ± SEM with n = 3 independent samples. * p < 0.05.
For purification of myeloid progenitor cells, bone marrow cells were collected in DMEM/10% FCS. After red cell lysis, cells were stained with biotin-conjugated antibodies against Ter119, Gr-1, Mac-1, B220, CD4, CD8 and IL-7Rα and incubated with streptavidin-microbeads (Miltenyi Biotech). Lineage positive cells were depleted by magnetic separation using MACS LS columns and QuadroMACS^TM separator magnets (Miltenyi Biotech). Hematopoietic myeloid progenitor cells that were propidium iodide (PI) negative, lineage-negative, Sca-1 negative and c-Kit positive, were sorted and collected by flow cytometry on a FACSAria or Diva (BD Biosciences). For imaging studies, cells were resuspended in StemPro-34 SFM (Invitrogen). Cells were cultured in 10 ng/mL human G-CSF (Neupogen, Amgen), 10 ng/mL recombinant mouse GM-CSF or 10 ng/mL recombinant human GM-CSF.
The MetaMorph script is available upon request.

The test system of series [16] is primary murine bone-marrow neutrophils. Nature of the series: Live cell imaging viability of primary bone-marrow neutrophils. As to conditions: for effect of chemotherapeutics on neutrophil viability: GM-CSF-primed, dose-dependent, Figure 5D.
Source text: Using a high-throughput live cell imaging approach reported previously [15], we examined the effect of the kinase inhibitors on the viability of bone marrow neutrophils to determine their potential to cause neutropenia (Figure 2). Because G-CSF and GM-CSF are dominant regulators of granulopoiesis and neutrophil survival, and are commonly used in a clinical setting to mobilize hematopoietic stem cells into the blood and increase neutrophil production [27–31], we treated cells with these cytokines immediately prior to drug exposure. The addition of either cytokine prevents constitutive neutrophil apoptosis thereby increasing the window for detection of changes in viability induced by drug treatments.
For all above, data represent mean ± SEM from three independent samples.
Mouse bone marrow neutrophils were prepared as described [15]. Neutrophils were resuspended in phenol red-free DMEM/10% FBS for imaging studies. The purity of neutrophil preparations was routinely 96% ± 4% (Mean ± SD, n = 50) as assessed by cytology following May-Grünwald/Giemsa staining.
Kinase inhibitors were purchased from SYN kinase (Melbourne, Australia) and were used at 1 μM, unless otherwise specified, with dilutions performed in assay buffer containing 0.1% DMSO.
Viability was monitored using 2 μg/mL PI (Sigma). Images were captured every 30-60 min by the Zeiss Axiovert 200M Microscope at 37 °C/10% CO2. Quantitative analysis was performed using a custom-scripted MetaMorph (Molecular Devices) journal suite incorporating the count nuclei function, reconstruction & subtraction functions and Integrated Morphometry Analysis to select and analyze cells of interest.
For series [17] the following is noted: cited from earlier work.

Entries after “also recorded” stand apart in the source; their conditions may differ. Read-outs that look alike come from different tables or passages of the source. Some results are limits rather than exact numbers.

Regarding `Cc1ccc([N+](=O)[O-])cc1S(=O)(=O)N(C)/N=C/c1cnc2ccc(Br)cn12` [PIK-75], the IC50 in series [1] was 40 nM; in series [2] it was 80 nM; in [3], 60 nM; in series [4], 90 nM; in series [5] it was 330 nM; in series [6], 140 nM. The IC50 was 290 nM in [7]; 130 nM in series [8]; 10 nM in series [9]; 100 nM in series [10]; 100 nM in series [11]; 60 nM in series [12]. Further, in series [13] (read-out: IC50 across most of the cell lines examined, Cell Titer Glo, most of 12 leukemia lines), the 50% inhibitory concentration (IC50) was not above 10 nM. The “cytotoxicity to leukemia cell lines” value in series [13] (12 leukemia cell lines) is “potently cytotoxic to all lines examined”. The “sensitivity of human neutrophils” value in series [14] is listed as “sensitive”. For the same molecule, the “effect of kinase inhibitors on HPC viability” value in series [15] (G-CSF- or GM-CSF-primed, 1 μM, over 24 hours) was “active against both G-CSF- and GM-CSF-treated HPC”. In addition, the EC50 in [16] (read-out: EC50 neutrophil viability, Mcl-1+/-, Mcl-1+/- neutrophils, 12 hour time-point) was 57 nM; in series [16] (read-out: EC50 neutrophil viability, wild-type, WT neutrophils, 12 hour time-point), 228 nM.

Consider `CC(C)(C)c1cnc(CSc2cnc(NC(=O)C3CCNCC3)s2)o1` [SNS-032], for which the IC50 in series [1] (Homo sapiens, EOL1) stood at 90 nM; in series [2] (Homo sapiens), 1330 nM; in [3] (Homo sapiens), 100 nM; in series [4] (Homo sapiens), 160 nM; in series [5] (Homo sapiens), 720 nM; in series [6] (Homo sapiens, KU812), 610 nM. The IC50 in [7] (Homo sapiens) amounted to 580 nM; in [8] (Homo sapiens, MOLT-4), 290 nM; in series [9] (Homo sapiens) it was 150 nM; in [10] (Homo sapiens, OCI-AML-3) it was 190 nM; in series [11] (Homo sapiens) it was 140 nM; in series [12] (Homo sapiens, U-937), 70 nM. The “sensitivity of human neutrophils” value in series [14] is “sensitive”. The “dose-limiting side-effect in patients” value in series [17] (patients with chronic lymphocytic leukemia and multiple myeloma) is “neutropenia as the dose-limiting side-effect”. For the same molecule, the “effect on mouse neutrophil viability (words)” value in series [16] (G-CSF- or GM-CSF-primed, inhibitors at 1 μM, over 24 hours) is given as “induced rapid cell death; also recorded: significant impact on neutrophil viability”. Moreover, the EC50 is more than 1000 nM in [16] (Mus musculus, Neutrophil, 12 h, read-out: EC50 neutrophil viability, Bak-/- Bax deficient); 80 nM in [16] (Mus musculus, Neutrophil, 12 h, read-out: EC50 neutrophil viability, Mcl-1+/-); 182 nM in series [16] (Mus musculus, Neutrophil, 12 h, read-out: EC50 neutrophil viability, wild-type); 194 nM in [16] (Mus musculus, Neutrophil, read-out: EC50 neutrophil viability, G-CSF primed); 218 nM in series [16] (Mus musculus, Neutrophil, read-out: EC50 neutrophil viability, GM-CSF primed).

With `N.N.O=C([O-])C1(C(=O)[O-])CCC1.[Pt+2]` [carboplatin], the “effect of chemotherapeutics on HPC viability” value in series [15] (GM-CSF-primed, dose-dependent, Figure 5C) is listed as “no effects”. Besides, the “neutropenia in the clinic” value in series [17] was “induce neutropenia in the clinic”. Further, in [16], the “effect of chemotherapeutics on neutrophil viability” value is reported as “no effects”.

`CC(=O)O[C@@]12CO[C@@H]1C[C@H](O)[C@@]1(C)C(=O)[C@H](O)C3=C(C)[C@@H](OC(=O)[C@H](O)[C@@H](NC(=O)OC(C)(C)C)c4ccccc4)C[C@@](O)([C@@H](OC(=O)c4ccccc4)[C@H]21)C3(C)C` [docetaxel]: in [15], the “effect of chemotherapeutics on HPC viability” value is on record as “no effects”. The “neutropenia in the clinic” value in series [17] is recorded as “induce neutropenia in the clinic”. Besides, in series [16], the “effect of chemotherapeutics on neutrophil viability” value was “no effects”.

For orientation: IC50 means the midpoint of a concentration-inhibition curve.

These data come from publication PMC5601625, “Defining a therapeutic window for kinase inhibitors in leukemia to avoid neutropenia” (Oncotarget, 2017).
